Data from patent US20250215014A1, “KINASE INHIBITORS, PREPARATION METHODS AND USES THEREOF” (InventisBio Co., Ltd., priority 2022, published 2025).

Experiments:
DGKa = DGKa (Homo sapiens (Human), UniProt P23743); assay: DGK ADP-Glo Kinase Assay (DGKa); assay type: biochemical; details: 10 nM DGKa, 15 uM ATP
Method: (§1) Luminescence was recorded using an Tecan SPARK microplate reader.

DGKz = DGKz (Homo sapiens (Human), UniProt Q13574); assay: DGK ADP-Glo Kinase Assay (DGKz); assay type: biochemical; details: 5 nM DGKz, 15 uM ATP
Method: as §1

Sequence of DGKz (Q13574 whole entry): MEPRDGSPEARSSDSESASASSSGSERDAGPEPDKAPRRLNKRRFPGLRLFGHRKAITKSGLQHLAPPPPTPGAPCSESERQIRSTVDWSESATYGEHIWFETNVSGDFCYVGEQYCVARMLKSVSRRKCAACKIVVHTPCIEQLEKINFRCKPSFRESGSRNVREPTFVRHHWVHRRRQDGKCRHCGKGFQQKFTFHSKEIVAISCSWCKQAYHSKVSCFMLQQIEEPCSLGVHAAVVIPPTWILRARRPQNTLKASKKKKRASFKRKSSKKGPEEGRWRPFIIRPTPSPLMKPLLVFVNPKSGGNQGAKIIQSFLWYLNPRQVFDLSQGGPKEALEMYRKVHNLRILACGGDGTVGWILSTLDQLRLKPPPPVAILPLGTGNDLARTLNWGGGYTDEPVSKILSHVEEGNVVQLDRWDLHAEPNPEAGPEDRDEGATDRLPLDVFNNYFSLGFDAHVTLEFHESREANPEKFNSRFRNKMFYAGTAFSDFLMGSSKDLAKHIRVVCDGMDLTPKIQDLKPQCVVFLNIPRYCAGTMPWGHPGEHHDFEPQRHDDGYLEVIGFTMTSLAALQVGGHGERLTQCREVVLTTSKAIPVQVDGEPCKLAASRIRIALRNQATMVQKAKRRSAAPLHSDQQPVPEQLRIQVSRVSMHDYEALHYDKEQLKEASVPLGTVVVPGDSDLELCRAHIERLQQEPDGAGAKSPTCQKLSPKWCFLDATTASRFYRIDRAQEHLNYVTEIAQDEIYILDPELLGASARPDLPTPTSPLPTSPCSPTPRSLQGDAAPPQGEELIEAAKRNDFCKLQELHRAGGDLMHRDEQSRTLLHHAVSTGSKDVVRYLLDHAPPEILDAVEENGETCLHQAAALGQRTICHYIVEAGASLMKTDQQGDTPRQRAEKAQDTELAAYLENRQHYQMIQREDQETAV
Sequence of DGKa (P23743 whole entry): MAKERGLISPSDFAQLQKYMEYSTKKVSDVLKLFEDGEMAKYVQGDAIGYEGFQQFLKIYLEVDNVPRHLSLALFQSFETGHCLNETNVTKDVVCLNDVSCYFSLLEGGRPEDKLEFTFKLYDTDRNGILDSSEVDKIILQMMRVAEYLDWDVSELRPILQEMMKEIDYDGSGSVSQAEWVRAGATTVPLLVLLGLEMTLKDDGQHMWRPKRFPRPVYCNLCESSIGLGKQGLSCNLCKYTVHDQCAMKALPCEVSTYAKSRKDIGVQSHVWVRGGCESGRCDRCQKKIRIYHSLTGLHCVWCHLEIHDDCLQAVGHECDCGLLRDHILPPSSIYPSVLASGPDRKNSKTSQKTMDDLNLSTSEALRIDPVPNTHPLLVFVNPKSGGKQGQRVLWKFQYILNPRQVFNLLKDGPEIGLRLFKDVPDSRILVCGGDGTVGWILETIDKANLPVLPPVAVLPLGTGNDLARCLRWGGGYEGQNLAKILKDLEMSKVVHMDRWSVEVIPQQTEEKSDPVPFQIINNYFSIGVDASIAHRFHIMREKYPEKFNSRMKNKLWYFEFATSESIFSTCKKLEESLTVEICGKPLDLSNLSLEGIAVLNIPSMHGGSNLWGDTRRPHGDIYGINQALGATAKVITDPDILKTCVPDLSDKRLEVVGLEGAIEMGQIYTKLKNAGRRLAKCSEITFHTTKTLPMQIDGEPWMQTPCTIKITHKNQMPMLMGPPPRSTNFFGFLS

Structure (SMILES)	IC50 (DGKa)	IC50 (DGKz)
Cc1ccc2oc(C3CCN(c4nc(=O)n(C)c5cc(O[C@H]6CCOC6)c(Cl)cc45)CC3)nc2c1 [Compound 33]	< 0.1 µM	< 0.1 µM
Cn1c(=O)nc(N2CCC3(CC2)COC(c2ccc(OC(F)(F)F)cc2)=N3)c2nc(Cl)ccc21 [Compound 37]	< 0.1 µM	0.1 to 1 µM
Cn1c(=O)nc(N2CCCc3c(C#CC4CC4)cccc32)c2nc(C#N)ccc21 [Compound 39]	< 0.1 µM	> 1 µM
Cn1c(=O)nc(N2CCCc3c(C#CC4CC4)cccc32)c2nc(C#N)ccc21 [Compound 42]	< 0.1 µM	0.1 to 1 µM
CC[C@H]1CN([C@H]2CCCCc3cc(C(F)(F)F)ccc32)[C@H](CC)CN1c1nc(=O)n(C)c2ccc(C#N)nc12 [Compound 44]	< 0.1 µM	0.1 to 1 µM
CN(c1cccc(C#CC2CC2)c1)c1nc(=O)n(C)c2ccc(C#N)nc12 [Compound 46]	< 0.1 µM	0.1 to 1 µM
Cn1c(=O)nc(N2CCC3(CC2)CC(c2cccc(C(F)(F)F)c2)=NO3)c2nc(C#N)ccc21 [Compound 47]	< 0.1 µM	< 0.1 µM
CC[C@H]1CN(C(C)c2ccc(SC(F)(F)F)cc2)[C@H](CC)CN1c1nc2nncn2c2ccc(C#N)nc12 (some centres unmarked) [Compound 51]	< 0.1 µM	< 0.1 µM
N#Cc1ccc2c(n1)c(N1CCC3(CC1)CC(c1ccc(C(F)(F)F)cc1)=NO3)nc1nncn12 [Compound 53]	< 0.1 µM	0.1 to 1 µM
N#Cc1ccc2c(n1)c(N1CCC3(CC1)CC(c1ccc(SC(F)(F)F)cc1)=NO3)nc1nncn12 [Compound 54]	< 0.1 µM	0.1 to 1 µM
CC[C@H]1CN([C@H](c2ccc(SC(F)(F)F)cc2)c2nc(C3CC3)cs2)[C@H](CC)CN1c1nc(=O)n(C)c2ccc(C#N)nc12 [Compound 57]	< 0.1 µM	0.1 to 1 µM
CC[C@H]1CN([C@@H](c2ccc(SC(F)(F)F)cc2)c2nc(C3CC3)cs2)[C@H](CC)CN1c1nc(=O)n(C)c2ccc(C#N)nc12 [Compound 58]	< 0.1 µM	0.1 to 1 µM
N#Cc1cc2c3c(n1)c(N1CCC4(CC1)CC(c1ccc(OC(F)(F)F)cc1)=NO4)nc(=O)n3CCO2 [Compound 59]	< 0.1 µM	0.1 to 1 µM
CC[C@H]1CN(C(c2ccc(S(F)(F)(F)(F)F)cc2)c2nc(C3CC3)no2)[C@H](CC)CN1c1nc(=O)n(C)c2ccc(C#N)nc12 (some centres unmarked) [Compound 64]	< 0.1 µM	< 0.1 µM
CC[C@@H]1CN(c2nc(=O)n(C)c3ccc(C#N)nc23)[C@@H](C)CN1C(c1ccc(S(F)(F)(F)(F)F)cc1)c1nc(C2CC2)no1 (some centres unmarked) [Compound 65]	< 0.1 µM	< 0.1 µM
CC[C@@H]1CN(c2nc(=O)n(C)c3ccc(C#N)nc23)[C@@H](C)CN1[C@@H](c1ccc(F)cc1)c1ccc(SC(F)(F)F)cn1 [Compound 72]	< 0.1 µM	< 0.1 µM
CC[C@@H]1CN(c2nc(=O)n(C)c3ccc(C#N)nc23)[C@@H](C)CN1[C@H](c1ccc(F)cc1)c1ccc(SC(F)(F)F)cn1 [Compound 73]	< 0.1 µM	< 0.1 µM
CC[C@H]1CN(C(CO)c2ccc(S(F)(F)(F)(F)F)cc2)[C@H](CC)CN1c1nc(=O)n(C)c2ccc(C#N)nc12 (some centres unmarked) [Compound 77]	< 0.1 µM	< 0.1 µM
CC[C@H]1CN(C(COC)c2ccc(S(F)(F)(F)(F)F)cc2)[C@H](CC)CN1c1nc(=O)n(C)c2ccc(C#N)nc12 (some centres unmarked) [Compound 78]	< 0.1 µM	< 0.1 µM
CC[C@@H]1CN(c2nc3nncn3c3ccc(C#N)nc23)[C@@H](CC)CN1C(=O)c1ccc(C(F)(F)F)cc1 [Compound 84]	< 0.1 µM	> 1 µM

Structure (SMILES)	IC50 (DGKa)	IC50 (DGKz)
CC[C@@H]1CN(c2nc3nncn3c3ccc(C#N)nc23)[C@@H](CC)CN1C(=O)Cc1ccc(C(F)(F)F)cc1 [Compound 85]	< 0.1 µM	0.1 to 1 µM
CC[C@@H]1C[C@H](c2nc3cc(C)ccc3o2)CCN1c1nc(=O)n(C)c2cc(O[C@H]3CCOC3)c(Cl)cc12 [Compound 91]	< 0.1 µM	> 1 µM
CC[C@@H]1C[C@H](c2nc3cc(C)ccc3o2)CCN1c1nc(=O)n(C)c2cc(O[C@@H]3CCOC3)c(Cl)cc12 [Compound 92]	0.1 to 1 µM	< 0.1 µM
CC[C@H]1C[C@@H](c2nc3cc(C)ccc3o2)CCN1c1nc(=O)n(C)c2cc(O[C@H]3CCOC3)c(Cl)cc12 [Compound 93]	< 0.1 µM	0.1 to 1 µM
CC[C@H]1C[C@@H](c2nc3cc(C)ccc3o2)CCN1c1nc(=O)n(C)c2cc(O[C@@H]3CCOC3)c(Cl)cc12 [Compound 94]	0.1 to 1 µM	> 1 µM
CC[C@@H]1CN(c2nc3nncn3c3ccc(C#N)nc23)[C@@H](CC)CN1C(=O)Nc1ccc(C(F)(F)F)cc1 [Compound 95]	< 0.1 µM	0.1 to 1 µM
CC[C@H]1CN([C@H](c2ccc(S(F)(F)(F)(F)F)cc2)c2nc(C3CC3)cs2)[C@H](CC)CN1c1nc(=O)n(C)c2ccc(C#N)nc12 [Compound 98]	< 0.1 µM	< 0.1 µM
CC[C@H]1CN([C@@H](c2ccc(S(F)(F)(F)(F)F)cc2)c2nc(C3CC3)cs2)[C@H](CC)CN1c1nc(=O)n(C)c2ccc(C#N)nc12 [Compound 99]	< 0.1 µM	< 0.1 µM
CCC(c1ccc(C(F)(F)F)cc1)N1CCN(c2nc3nncn3c3ccc(C#N)nc23)C(CC)C1 (centres unmarked) [Compound 102]	< 0.1 µM	> 1 µM
CCC(c1ccc(C23CC(C2)C3)nc1)N1C[C@H](CC)N(c2nc3nncn3c3ccc(C#N)nc23)C[C@H]1CC (some centres unmarked) [Compound 104]	< 0.1 µM	< 0.1 µM
CC[C@@H]1CN2c3c(c(=O)n(C)c4ccc(C#N)nc34)OC[C@H]2CN1[C@@H](CC)c1ccc(C(F)(F)F)cc1 [Compound 107]	< 0.1 µM	0.1 to 1 µM
CC[C@@H]1CN2c3c(c(=O)n(C)c4ccc(C#N)nc34)OC[C@H]2CN1[C@H](CC)c1ccc(S(F)(F)(F)(F)F)cc1 [Compound 108]	< 0.1 µM	0.1 to 1 µM
CC[C@H]1CN([C@H]2CCCCc3cc(C(F)(F)F)ccc32)[C@H](CC)CN1c1nc2nncn2c2ccc(C#N)nc12 [Compound 113]	< 0.1 µM	0.1 to 1 µM
CC[C@H]1CN([C@@H]2CCCCc3cc(C(F)(F)F)ccc32)[C@H](CC)CN1c1nc2nncn2c2ccc(C#N)nc12 [Compound 114]	< 0.1 µM	< 0.1 µM
CC[C@H]1CN([C@@H](CC)c2nc(C3CC3)no2)[C@H](CC)CN1c1nc2nncn2c2ccc(C#N)nc12 [Compound 119]	< 0.1 µM	< 0.1 µM
CC[C@H]1CN([C@H](CC)c2nc(C3CC3)no2)[C@H](CC)CN1c1nc2nncn2c2ccc(C#N)nc12 [Compound 120]	< 0.1 µM	0.1 to 1 µM
CC[C@@H]1CN2c3c(c(=O)n(C)c4ccc(C#N)nc34)OC[C@@H]2CN1[C@@H](CC)c1ccc(C(F)(F)F)cc1 [Compound 121]	< 0.1 µM	> 1 µM
CC[C@@H]1CN2c3c(c(=O)n(C)c4ccc(C#N)nc34)OC[C@@H]2CN1[C@H](CC)c1ccc(C(F)(F)F)cc1 [Compound 122]	< 0.1 µM	< 0.1 µM
CC[C@@H]1CN2c3c(c(=O)n(C)c4ccc(C#N)nc34)OC[C@@H]2CN1[C@@H](CC)c1ccc(SC(F)(F)F)cc1 [Compound 123]	< 0.1 µM	0.1 to 1 µM
CC[C@@H]1CN2c3c(c(=O)n(C)c4ccc(C#N)nc34)OC[C@@H]2CN1[C@H](CC)c1ccc(SC(F)(F)F)cc1 [Compound 124]	< 0.1 µM	0.1 to 1 µM
